For 16 molecules, EC50 and IC50 results are on record in ChEMBL document CHEMBL1201862, “PubChem BioAssay data set” (2004).

Calls of active or inactive are those of the source. Cut-off read from the data, not from the text of the source, for most assays here: actives have a measured EC50 and inactives only a lower limit.

Tested on in the first assay: not listed separately
Nature of the assay: cells. Type of assay: functional, cell-based.
Settings: not given
Regarding `CC(C)(C)c1cc(C(=O)N2CCN(c3ncccn3)CC2)ccn1`, the EC50 was > 350 µM (not active).

`CCOc1ccccc1N(CC(=O)N/N=C/c1cc(Br)ccc1OC)S(C)(=O)=O`: the EC50 is given as > 350 µM (not active).

Take `O=C(CSc1nc(O)c2ccccc2n1)Nc1ccc(Br)cc1`: the EC50 is reported as > 350 µM (not active).

The target of a further assay is T1, Corticotropin-releasing factor receptor 2/Corticotropin-releasing factor-binding protein (Homo sapiens, UniProt P24387+Q13324).
T1 sequence (Q13324 whole entry): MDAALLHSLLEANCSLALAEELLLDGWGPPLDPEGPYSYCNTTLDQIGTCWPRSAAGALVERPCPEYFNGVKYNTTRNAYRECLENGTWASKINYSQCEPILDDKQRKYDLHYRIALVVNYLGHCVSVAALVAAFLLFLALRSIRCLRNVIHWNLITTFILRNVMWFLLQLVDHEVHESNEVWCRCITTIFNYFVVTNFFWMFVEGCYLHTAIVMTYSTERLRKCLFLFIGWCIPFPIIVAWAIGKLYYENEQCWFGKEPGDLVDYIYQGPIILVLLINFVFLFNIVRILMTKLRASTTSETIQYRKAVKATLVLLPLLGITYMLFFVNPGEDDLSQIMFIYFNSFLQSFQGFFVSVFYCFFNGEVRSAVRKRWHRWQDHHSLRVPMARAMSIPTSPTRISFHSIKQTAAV
T1 sequence (P24387 whole entry): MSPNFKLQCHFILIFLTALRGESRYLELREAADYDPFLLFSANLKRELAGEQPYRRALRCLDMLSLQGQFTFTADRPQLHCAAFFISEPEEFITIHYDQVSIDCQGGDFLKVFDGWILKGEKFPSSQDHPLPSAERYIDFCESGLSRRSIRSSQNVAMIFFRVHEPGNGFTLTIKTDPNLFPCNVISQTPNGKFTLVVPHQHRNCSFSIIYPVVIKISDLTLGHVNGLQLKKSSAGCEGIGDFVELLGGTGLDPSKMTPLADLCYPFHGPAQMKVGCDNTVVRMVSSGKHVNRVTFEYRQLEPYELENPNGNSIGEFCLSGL
Kind of assay: Dose Response confirmation of uHTS hits for small molecule antagonists of the CRF-binding protein and CRF-R2 receptor complex. Type of assay: functional. Particulars: read-out: IC50_Mean.
In the case of `CCOc1ccccc1C(=O)OCC(=O)NCC1CCCO1` (stereo unspecified), the IC50 is > 47.1 µM (inactive).

Regarding `CCOC(=O)c1cc(C)sc1NC(=O)CCC(=O)O`, the IC50 was > 47.1 µM (inactive).

For the molecule `Cc1ccc(OCc2cc(C(=O)N3CCN(CC(=O)NC(C)C)CC3)no2)cn1`, the IC50 is > 47.1 µM (inactive).

Consider `N#Cc1cccc(NCC(=O)Nc2ccc3c(c2)OCCO3)c1`, for which the IC50 was > 47.1 µM (inactive).

With `COc1ccc(C2=Nc3ccccc3C2(O)CCN2C(=O)c3ccccc3C2=O)cc1` (stereo unspecified), the IC50 was > 47.1 µM (inactive).

Turning to `O=C(NCCc1cccnc1)C1CCC(=O)N(Cc2ccc(Cl)cc2)C1` (stereo unspecified), the IC50 is > 47.1 µM (inactive).

Turning to `NC(=O)COC(=O)c1ccc(-c2ccc(O)cc2)cc1`, the IC50 is > 47.1 µM (inactive).

Regarding `Cc1noc(C)c1NC(=O)Nc1ccc2c(c1)C(=O)N([C@H](C)CO)C[C@H](C)[C@@H](CN(C)S(=O)(=O)c1ccc(F)cc1)O2`, the IC50 was > 47.1 µM (inactive).

Consider `N#Cc1nc(Nc2cccc(Cl)c2)c2ncn(C3CCCC3)c2n1`, for which the IC50 was > 47.1 µM (inactive).

For `COc1ccc(C2C3=C(O)CC(C)(C)CC3=Nc3c2c(=O)n(C)c(=O)n3C)cc1OC` (stereo unspecified), the IC50 is > 47.1 µM (inactive).

For the molecule `O=C(O)c1cc(-c2ccccc2)nc(-c2ccccc2)c1`, the IC50 was > 47.1 µM (inactive).

With `Cc1csc(NC(=O)Cc2ccc(Br)cc2)n1`, the IC50 is > 47.1 µM (inactive).

Tested on in another assay: not listed separately
Nature of the assay: growth suppression of beta-catenin-knockout colon cells, dose response, cell-based, HCT116, human colon tumor (AID 1045).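 Note: HCT116 colon tumor cells with beta catenin knocked out; cells exposed to compound for 60 hours.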
Settings: not given
The format is functional.
For `CCn1c(CNc2ccc(OC)cc2)nnc1SCC(=O)c1ccc(OC)cc1`, the EC50 was 470 µM (active).

Tested on in another assay: not listed separately
Kind of assay: cells. Type of assay: functional, cell-based.
Settings: not given
This is another data set of the same source.
As for `CC(C)(C)c1cc(C(=O)N2CCN(c3ncccn3)CC2)ccn1`, the EC50 is reported as > 350 µM (not active).

For `CCOc1ccccc1N(CC(=O)N/N=C/c1cc(Br)ccc1OC)S(C)(=O)=O`, the EC50 is > 350 µM (not active).

Consider `O=C(CSc1nc(O)c2ccccc2n1)Nc1ccc(Br)cc1`, for which the EC50 is > 350 µM (not active).

The target of a further assay is T1, Corticotropin-releasing factor receptor 2/Corticotropin-releasing factor-binding protein. Kind of assay: activators of CRF receptor 2 with binding protein – uHTS hits, confirmation (AID 602473). The following applies: read-out: EC50_Mean. Type of assay: functional.
Consider `CCOc1ccccc1C(=O)OCC(=O)NCC1CCCO1` (stereo unspecified), for which the EC50 was > 53 µM (inactive).

On to `CCOC(=O)c1cc(C)sc1NC(=O)CCC(=O)O`, for which the EC50 was > 53 µM (inactive).

Consider `Cc1ccc(OCc2cc(C(=O)N3CCN(CC(=O)NC(C)C)CC3)no2)cn1`, for which the EC50 was > 53 µM (inactive).

For `N#Cc1cccc(NCC(=O)Nc2ccc3c(c2)OCCO3)c1`, the EC50 was > 53 µM (inactive).

`COc1ccc(C2=Nc3ccccc3C2(O)CCN2C(=O)c3ccccc3C2=O)cc1` (stereo unspecified): the EC50 is > 53 µM (inactive).

`O=C(NCCc1cccnc1)C1CCC(=O)N(Cc2ccc(Cl)cc2)C1` (stereo unspecified): the EC50 was > 53 µM (inactive).

Regarding `NC(=O)COC(=O)c1ccc(-c2ccc(O)cc2)cc1`, the EC50 was > 53 µM (inactive).

In the case of `Cc1noc(C)c1NC(=O)Nc1ccc2c(c1)C(=O)N([C@H](C)CO)C[C@H](C)[C@@H](CN(C)S(=O)(=O)c1ccc(F)cc1)O2`, the EC50 was > 53 µM (inactive).

Consider `N#Cc1nc(Nc2cccc(Cl)c2)c2ncn(C3CCCC3)c2n1`, for which the EC50 is > 53 µM (inactive).

In the case of `COc1ccc(C2C3=C(O)CC(C)(C)CC3=Nc3c2c(=O)n(C)c(=O)n3C)cc1OC` (stereo unspecified), the EC50 is > 53 µM (inactive).

In the case of `O=C(O)c1cc(-c2ccccc2)nc(-c2ccccc2)c1`, the EC50 was > 53 µM (inactive).

With `Cc1csc(NC(=O)Cc2ccc(Br)cc2)n1`, the EC50 was > 53 µM (inactive).
